This note sets out measurements from US7476691B2, “Sulfamate benzothiophene derivatives as steroid sulfatase inhibitors” (Laboratoire Theramex, priority 2003, dated 2009).

The target in data set [1] is T1, estrone sulfatase (Rattus norvegicus, UniProt P15589).
T1 construct: uteri were thawed, weighed and homogenized; from tissue; host or cells: uterus of animals dosed orally (ex vivo homogenate supernatant)
T1 sequence (P15589 20-577): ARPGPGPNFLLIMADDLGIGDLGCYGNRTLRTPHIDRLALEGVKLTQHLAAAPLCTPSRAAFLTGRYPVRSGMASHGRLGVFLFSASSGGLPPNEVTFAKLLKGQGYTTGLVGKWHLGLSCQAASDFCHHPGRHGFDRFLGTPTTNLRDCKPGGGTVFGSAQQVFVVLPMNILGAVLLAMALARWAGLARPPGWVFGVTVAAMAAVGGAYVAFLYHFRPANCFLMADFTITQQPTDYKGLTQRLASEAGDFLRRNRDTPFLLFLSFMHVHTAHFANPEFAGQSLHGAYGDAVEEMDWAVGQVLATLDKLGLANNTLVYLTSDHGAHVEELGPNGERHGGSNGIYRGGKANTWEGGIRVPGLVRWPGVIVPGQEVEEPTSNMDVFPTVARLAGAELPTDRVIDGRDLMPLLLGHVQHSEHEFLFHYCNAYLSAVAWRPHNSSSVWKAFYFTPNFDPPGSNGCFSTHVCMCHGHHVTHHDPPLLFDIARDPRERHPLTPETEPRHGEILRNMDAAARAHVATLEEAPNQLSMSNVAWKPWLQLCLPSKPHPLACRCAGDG
The data set can be described thus: Estrone sulfatase activity in the uterus of treated rats. In kind it is in vivo. As for the experimental part:
In this study, a last administration was performed 24 hours before the necropsy for E1S and E2 serum levels assays. The uteri were removed, freed of adjacent tissue, wet weighed and immediately deep frozen until the determination of sulfatase activity.
Estrone sulfatase activity was measured according to the method described by Purohit et al., with slight modifications. Briefly, uteri were thawed, weighed and homogenized. Aliquots of the supernatant were treated with dextran-coated charcoal and assayed for sulfatase. E1S activity was assessed after 30 min of incubation with 5 nM of ^3H-E1S and 20 μM of unlabelled E1S as substrate. Radioactivity was measured by LSC.
Estrone sulfatase activity was expressed as pmol/h/mg protein and reported as percentage of inhibition versus E1S.

Data set [2] addresses T2, steroid sulfatase (Homo sapiens, UniProt P08842).
T2 construct: from tissue; host or cells: MCF-7 xenograft tumour removed from athymic nude mice
T2 sequence (P08842 22-583): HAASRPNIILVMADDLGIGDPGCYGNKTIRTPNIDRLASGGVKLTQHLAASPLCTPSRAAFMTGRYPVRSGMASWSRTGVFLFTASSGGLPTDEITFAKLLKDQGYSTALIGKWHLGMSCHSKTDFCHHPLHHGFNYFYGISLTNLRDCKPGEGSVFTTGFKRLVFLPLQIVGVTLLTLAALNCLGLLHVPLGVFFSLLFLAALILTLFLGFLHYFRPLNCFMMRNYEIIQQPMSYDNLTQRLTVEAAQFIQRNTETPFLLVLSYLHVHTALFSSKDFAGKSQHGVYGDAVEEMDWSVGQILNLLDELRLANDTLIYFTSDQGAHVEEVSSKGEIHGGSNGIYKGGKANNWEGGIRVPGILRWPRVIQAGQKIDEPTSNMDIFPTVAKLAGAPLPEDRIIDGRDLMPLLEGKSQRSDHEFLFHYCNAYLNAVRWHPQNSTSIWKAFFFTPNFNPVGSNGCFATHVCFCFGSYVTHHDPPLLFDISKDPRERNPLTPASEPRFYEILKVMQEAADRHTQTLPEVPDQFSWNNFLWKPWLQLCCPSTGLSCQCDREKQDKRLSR
As to the kind of experiment: Xenograft steroid sulfatase activity. In kind it is in vivo, mouse. The note with it: oral 0.1 mg/kg/day for 6 weeks. As for the experimental part: MCF-7 cells, derived from human breast adenocarcinoma, were injected subcutaneously in ovariectomized athymic nude mice supplemented with estrone sulfate (pellets 0.5 mg/90 day release). Xenograft volumes were determined once weekly. When tumor volumes reached a significant increase, 6,6,7 COUMATE and Ex 55 were orally administered at 0.1 mg/kg/day for 6 weeks.
Xenografts were measured, removed, weighed, and deep frozen until the determination of steroid sulfatase activity.

Data set [3] concerns the target T3, estrone sulfatase (Homo sapiens, UniProt P08842).
T3 sequence (P08842 22-583): T2 sequence (P08842 22-583)
As to the kind of experiment: Estrone sulfatase whole-cell assay on MCF-7 cells. The note with it: 20 h treatment, 3H-E1S, read-out: IC50 (nM) ± S.E.M., inhibition of estrone sulfatase. In kind it is cell-based. Set-up: Whole-cell assays were performed as originally described by Duncan et al. (Cancer Res., 1993, 53: 298-303) on intact MCF-7 cell monolayers; endogenous in cells; host or cells: MCF-7 (human breast adenocarcinoma), intact monolayers. The procedure:
Two in vitro models on whole cells were used. […] Moreover, these cells were used in the in vivo model of hormono-dependent induced xenografts.
Estrone Sulfatase Assay on Cells
Whole-cell assays were performed as originally described by Duncan et al. (Cancer Res., 1993, 53: 298-303) on intact MCF-7 cell monolayers. Assays were carried out with cells in logarithmic growth phase, on 96-well (JEG-3) or 24-well (MCF-7) microplates. Twenty-four hours (JEG-3) or 72 h (MCF-7) before studies, cells were seeded in decomplemented fetal calf serum (dFCS) supplemented medium. Then, the seeding medium was removed and the cells were rinsed with PBS to eliminate any trace of dFCS. Then, ^3H-E1S was added, followed by test compounds ranging from 10^−12 M to 10^−5 M. After 4 h (JEG-3) or 20 h (MCF-7) of treatment, the medium was transferred into either 96-deep-well microplates (JEG-3) or plastic tubes (MCF-7) and centrifuged at 200×g for 10 min to pellet cells before toluene extraction. A fraction of medium was used for toluene extraction in order to separate conjugated substrate and non-conjugated products. The radioactivity in the toluene phase was measured by liquid scintillation counting (LSC). Finally, estrone sulfatase activity was expressed in pmoles of ^3H-E1+^3H-E2 formed per 4 or 20 hours and per μg DNA and estrone sulfatase inhibition in percentage of control activity without inhibitor.

In turn, `NS(=O)(=O)Oc1ccc2c(c1)S(=O)(=O)C(CC1CCCCCC1)=C2` [Ex 55, Sulfamic acid, 2-cycloheptylmethyl-benzothiophene-6-yl-1,1-dioxide ester] gave a melting point of 135 °C. In addition, the “Estrone sulfatase activity in the uterus, percentage of inhibition versus E1S” value in data set [1] (0.03 mg/kg/day p.o.) is 19%. Further, the “Estrone sulfatase activity in the uterus, percentage of inhibition versus E1S” value in data set [1] (0.1 mg/kg/day p.o.) is 64%. Also, in data set [1] (0.3 mg/kg/day p.o.), the “Estrone sulfatase activity in the uterus, percentage of inhibition versus E1S” value came out at 96%. Further, in data set [1] (1 mg/kg/day p.o.), the “Estrone sulfatase activity in the uterus, percentage of inhibition versus E1S” value was 97%. In addition, in data set [2] (MCF-7 xenografts), the “Xenograft steroid sulfatase activity” value is listed as 263 ± 17 pmol/h/mg protein. The inhibition at 0.1 mg/kg/day in data set [2] (read-out: inhibition of intratumoral steroid sulfatase activity) came out at 84%. The IC50 in data set [3] stood at 0.05 ± 0.01 nM.
